The source of these data is EP0258175A2, “5-hetero- or aryl-substituted-imidazo[2,1-a]isoquinolines” (SANDOZ AG, priority 1986, dated 1988).

Structures can show the parent of a compound that is named as a salt.

The target of assay [1] is T1, Human Platelet PAF Receptor (Homo sapiens, UniProt P25105).
T1 construct: from tissue; host or cells: washed human platelets from donor blood
The assay can be described thus: Human Platelet PAF Receptor Assay test (Test A): inhibition of specific binding of [³H]-PAF to platelets. Particulars: inhibition of specific binding of [³H]-PAF to human platelets, read-out: IC₅₀. The protocol: The compounds of formula I are indicated for use as platelet activating factor receptor antagonists as indicated by their ability to inhibit specific binding of [³H]-PAF to platelets according to the Human Platelet PAF Receptor Assay test (Test A) as follows: Human blood is obtained by venipuncture of healthy, human donors into an anti-coagulant mixture containing 3.15% of trisodium citrate and 20 µg/ml of Prostaglandin I₂ (PGI₂) in a ratio of blood to anti-coagulant of 9:1. Platelet rich plasma (PRP) is prepared by centrifugation (250 x g) of the blood for 20 minutes at room temperature. […] All of the tests are conducted in duplicate and each of the test compounds is evaluated at concentrations of 100, 50, 1 and 0.1 µM. […] An additional 2 ml of Scintiverse II is then added to the vials and, after mixing, the vials are counted for 1 minute in a liquid scintillation spectrometer. The amount of specific binding is calculated as the difference in cpm between the total bound [³H]-PAF and non-specifically bound [³H]-PAF. The percent inhibition of specific binding is determined by dividing the cpm specifically bound in the presence of the test compound by the cpm specifically bound in total, multiplying by 100 and then subtracting from 100. […]

Assay [2] has as its system PAF-mediated bronchoconstriction. The assay can be described thus: PAF-induced Pulmonary Inflation Pressure (PIP) Increase test (Test B). The format is in vivo. The note with it: Cavia porcellus, po, guinea pigs, PAF 100 ng/kg i.v., maximal PIP increase, read-out: ED₅₀. The protocol:
Furthermore, in view of their potential as PAF receptor antagonists, the compounds of formula I are indicated for use as inhibitors of PAF-mediated bronch oconstriction, which property was evaluated by the PAF-induced Pulmonary Inflation Pressure (PIP) Increase test (Test B) as follows:
Male guinea pigs, weighing between 300 and 400 g, are anesthetized, after which time trachea tube, carotid and jugular cathers are inserted. The test animal is then force ventilated employing a small animal Harvard respirator and the resistance to lung inflation (PIP) is measured utilizing a pressure transducer and recorder. The test compound is administered either orally at 30 minutes up to 4 hours prior to or parenterally e.g. intravenously (jugular) etc. at 5 minutes up to 4 hours prior to the introduction of PAF. […] Any blood pressure measurements taken are recorded from a transducer attached to the carotid catheter. […] A reading at 15 minutes after the administration of PAF is termed the endpoint PIP. The effect of the test compound on the PIP response is determined by the difference between the percent increase in maximal PIP over baseline for the test animal to which has been administered PAF and the test compound compared to the test animal to which only PAF has been administered.

In assay [3] the test system is PAF-mediated extravasation. The assay is described as follows: PAF-induced Extravasation test (Test C), hemoconcentration (hematocrit). The format is in vivo. Particulars: Cavia porcellus, po, guinea pigs, PAF 100 ng/kg i.v., inhibition of increase in hematocrit, read-out: ED₅₀. On the procedure:
Still further, the compounds of formula I are indicated for use as inhibitors of PAF-mediated extravasation (the extrusion of plasma from the lumen of the blood vessels into the vessel wall and surrounding tissues) measured as a function of hemoconcentration according to the PAF-induced Extravasation test(Test C) as follows: Male guinea pigs, weighing between 300 and 400 g, are anesthetized, after which time a femoral catheter is inserted. The test compound is administered either orally or parenterally one hour up to 4 hours prior to the introduction of PAF. The PAF (C₁₈-Sandoz, Hanover) is dissolved in Tris-Tyrode's bovine serum albumin buffer and administered intravenously (jugular) at 100 ng/kg. […] The tubes are then centrifuged and the percent of packed red blood cells (hematocrit) is measured (PAF induces a maximal increase in hematocrit at 5 to 7 minutes subsequent to the injection of PAF). The percent increase in hematocrit over the value prior to the injection of PAF is calculated. The hemacrotit values obtained with the test compound are compared to the hemoconcentration values obtained with PAF alone and are expressed as percent inhibition of percent increase in hematocrit.

The subject of assay [4] is Meth A sarcoma cells. The assay can be described thus: Meth A fibrosarcoma implant in mice (Test F): tumor growth and survivors. The format is in vivo. Particulars: 50µg per day p.o. for 28 days, ten CBF₁ mice implanted with 7.3 x 10⁶ Meth A sarcoma cells. From the text: Test F) Meth A fibrosarcoma cells were induced in BALB/C mice by administering methylcholanthrene according to the procedure of Old, et al. (L.J. Old, E.A. Boyse, D.A. Clarke, and E. Carswell, Ann. N.Y. Acad. Sci., 101, 80 (1962). These tumor cells were harvested from the peritoneal cavity 10 to 12 days after administration of methylcholanthrene. Ten CBF₁ mice of 10-12 week age were each implanted with 7.3 x 10⁶ Meth A sarcoma cells to serve as control. A second group of ten CBF₁ mice were each implanted with 7.3 x 10⁶ Meth A sarcoma cells and on day one after implant each mouse was treated p.o. with 5-50µg of the test compound per day for a total of twenty or twenty-seven days. Tumor growth and survivors were assayed on days 7, 14, 21 and 28 after tumor implantation.

For assay [5], the system named is Abelson 8.1 tumor cells. The assay can be described thus: Tumor cell cytotoxicity Test (TCCT) (Test D), alkaline phosphatase readout. The note with it: at 5µg. It is filed as cell-based. On the procedure:
Test D) Tumor cell cytotoxicity Test (TCCT).
In flat bottom microtiter plates (Nunc Roskieide, Denmark) were placed Abelson 8.1 tumor cells in DMEM + 10% fetal calf serum and the tumor cell-containing plates were incubated with 1,3, and 5µg of the test compound for a period of 6 to 72 hours. The number of viable tumor cells present was determined by measuring the alkaline phosphatase in the following manner. The tumor cell plates were centrifuged (500 x g.) for ten minutes and the supernatant flicked off. Without further washing, 100 ul of buffer containing 20 ul of diethanolamine, 2uM of MgCl₂ · 6H₂O, 2.5 uM of p-nitrophenylphosphate and 10 mg Triton X-100 were added. The samples were incubated for 60 minutes at room temperature and the enzymatic reaction was terminated by the addition of 100 ul of 0.5N NaOH. The absorbance was then measured at […] using a Titertek Multiskan apparatus.

Assay [6] deals with Abelson 8.1 tumor cells. The assay can be described thus: Influence on Cytotoxicity of ET-18-OCH₃ test (IC-ET test) (Test E). It is filed as cell-based, mice. The note with it: at 5 µg, macrophages pre-incubated with 10µg ET-18-OCH₃, values recorded after 72 hours, ET-18-OCH₃ alone set at 100%. The protocol:
Test E) Influence on Cytotoxicity of ET-18-OCH₃ test (IC-ET test).
Bone marrow cell macrophages (10⁵/well)obtained from [BALB/CX57/BL₆]Fl mice were incubated with 10µg of 1-octadecyl-2-methoxy-3-phosphoryl choline (ET-18-OCH₃) for 24 hours in flat bottom microtiter plates (Nunc Roskieide,Denmark), after which time they are centrifuged and washed once. Abelson 8.1 tumor cells in DMEM + 10% fetal calf serum and 1,3 and 5ug of the test compound were then added to the plates. With the cytotoxicity of ET-18-OCH₃ (10ug) alone set at 100%, the inhibition or enhancement of the cytotoxic effect, as measured by an alkaline phosphatase assay, was determined and values recorded after 72 hours for 1,3 and 5ug of the test substance.

T1 sequence (P25105 whole entry): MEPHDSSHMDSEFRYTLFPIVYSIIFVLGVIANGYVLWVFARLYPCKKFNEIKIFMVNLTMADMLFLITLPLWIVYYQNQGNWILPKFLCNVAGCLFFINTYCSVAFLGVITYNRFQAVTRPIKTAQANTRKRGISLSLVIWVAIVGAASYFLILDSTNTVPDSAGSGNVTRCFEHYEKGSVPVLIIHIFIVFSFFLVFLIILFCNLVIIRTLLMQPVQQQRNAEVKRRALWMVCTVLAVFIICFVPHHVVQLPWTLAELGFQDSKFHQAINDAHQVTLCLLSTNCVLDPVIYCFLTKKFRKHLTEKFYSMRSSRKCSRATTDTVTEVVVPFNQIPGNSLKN

Consider `COc1cc(CCc2ccc(C3=Cc4ccccc4C4=NCCN34)cc2)cc(OC)c1OC.Cl` [Example 7E, 5-[4ʹ-(3,4,5-trimethoxyphenylethyl)phenyl]-2,3-dihydroimidazo [2,1-a]isoquinoline hydrochloride], for which the IC50 in assay [1] was determined as 60 nM. For the same compound, the ED50 was 5 mg/kg in assay [2] and 4.2 mg/kg in assay [3].
`C1=C(c2ccc(CN3CCCCC3)cc2)N2CCN=C2c2ccccc21.Cl.Cl` [Example 3N, 5-(4ʹ-piperidinomethylphenyl)-2,3-dihydroimidazo[2,1-a]isoquinoline dihydrochloride]: the Tumor growth entry in assay [4] is recorded as “no evidence of the presence of any tumors”. Moreover, in assay [4] (none of the control group survived), the survivors entry is on record as “all of the animals”.
For the compound `C=CCN(CC=C)Cc1ccc(C2=Cc3ccccc3C3=NCCN23)cc1` [Example 3BB, 5-(4ʹ-diallylaminomethylphena]isoquinoline dihydrochloride], the inh. turned out to be 99% in assay [5] and 97% in assay [6].
